From ChEMBL document CHEMBL3885861, “Open TG-GATES”

Species on record: Rattus norvegicus
Experiment: Open TG-GATES - Regimen: Single
Type: toxicity, organism-based, Sprague-Dawley
Design: regimen Single, gender Male, age 6 weeks
Conditions: in vivo, po, 4000 mg/kg, route gavage, dose level High; for APTT / Bas / Eos / Fbg / Hb / Ht / Lym / MCH / MCHC / MCV / Mono / Neu / PT / Plat / RBC / Ret / WBC: tissue Blood; for KIDNEY_L / KIDNEY_R / KIDNEY_TOTAL: tissue Kidney; for LIVER: tissue Liver; for A/G / ALP / ALT / AST / BUN / CRE / Ca / Cl / DBIL / GLC / IP / K / LDH / Na / PL / RALB / TBIL / TC / TG / TP / gamma-GTP: tissue Plasma

Q: Which TERMINAL_BW (3 h) does the source give for CCO [ALCOHOL] here?
A: 206.9 g

Q: And the APTT (3 h)?
A: 17.9 s

Q: And the Bas (3 h)?
A: 0%

Q: What about the Eos (3 h) of the same compound?
A: 1.6%

Q: What about the Fbg (3 h) of the same compound?
A: 188.4 mg/dL

Q: What about the Hb (3 h) of the same compound?
A: 13.4 g/dL

Q: And the Ht (3 h)?
A: 40.1%

Q: And the Lym (3 h)?
A: 78%

Q: And the MCH (3 h)?
A: 21.9 pg

Q: What about the MCHC (3 h) of the same compound?
A: 33.4%

Q: What about the MCV (3 h) of the same compound?
A: 65.6 fL

Q: And the Mono (3 h)?
A: 7.2%

Q: What about the Neu (3 h) of the same compound?
A: 13.8%

Q: What about the PT (3 h) of the same compound?
A: 12.2 s

Q: And the Plat (3 h)?
A: 110.6 x10_4/uL

Q: What about the RBC (3 h) of the same compound?
A: 612.2 x10_4/ul

Q: What about the Ret (3 h) of the same compound?
A: 9.9%

Q: What about the WBC (3 h) of the same compound?
A: 86.8 x10_2/uL

Q: And the KIDNEY_L (3 h)?
A: 1 g

Q: What about the KIDNEY_R (3 h) of the same compound?
A: 1 g

Q: What about the KIDNEY_TOTAL (3 h) of the same compound?
A: 1.9 g

Q: What about the LIVER (3 h) of the same compound?
A: 9.6 g

Q: And the A/G (3 h)?
A: 2.5

Q: And the ALP (3 h)?
A: 733.4 IU/L

Q: What about the ALT (3 h) of the same compound?
A: 35.2 IU/L

Q: What about the AST (3 h) of the same compound?
A: 65.8 IU/L

Q: And the BUN (3 h)?
A: 8.8 mg/dL

Q: What about the CRE (3 h) of the same compound?
A: 0.5 mg/dL

Q: And the Ca (3 h)?
A: 10.3 mg/dL

Q: And the Cl (3 h)?
A: 104.4 meq/L

Q: What about the DBIL (3 h) of the same compound?
A: 0.02 mg/dL

Q: And the GLC (3 h)?
A: 212.4 mg/dL

Q: What about the IP (3 h) of the same compound?
A: 9.1 mg/dL

Q: What about the K (3 h) of the same compound?
A: 4.7 meq/L

Q: And the LDH (3 h)?
A: 106.2 IU/L

Q: What about the Na (3 h) of the same compound?
A: 139.8 meq/L

Q: What about the PL (3 h) of the same compound?
A: 148.4 mg/dL

Q: What about the RALB (3 h) of the same compound?
A: 3.8 g/dL

Q: And the TBIL (3 h)?
A: 0.4 mg/dL

Q: What about the TC (3 h) of the same compound?
A: 79.8 mg/dL

Q: What about the TG (3 h) of the same compound?
A: 77.8 mg/dL

Q: What about the TP (3 h) of the same compound?
A: 5.3 g/dL

Q: What about the gamma-GTP (3 h) of the same compound?
A: 1.8 IU/L

Q: And the TERMINAL_BW (6 h)?
A: 206.9 g

Q: What about the APTT (6 h) of the same compound?
A: 19.1 s

Q: What about the Bas (6 h) of the same compound?
A: 0%

Q: What about the Eos (6 h) of the same compound?
A: 1.2%

Q: What about the Fbg (6 h) of the same compound?
A: 205 mg/dL

Q: What about the Hb (6 h) of the same compound?
A: 13.5 g/dL

Q: And the Ht (6 h)?
A: 40.4%

Q: What about the Lym (6 h) of the same compound?
A: 81%

Q: What about the MCH (6 h) of the same compound?
A: 21.3 pg

Q: What about the MCHC (6 h) of the same compound?
A: 33.4%

Q: What about the MCV (6 h) of the same compound?
A: 63.9 fL

Q: What about the Mono (6 h) of the same compound?
A: 4.6%

Q: What about the Neu (6 h) of the same compound?
A: 13.4%

Q: And the PT (6 h)?
A: 11.8 s

Q: And the Plat (6 h)?
A: 112.3 x10_4/uL

Q: And the RBC (6 h)?
A: 632.8 x10_4/ul

Q: And the Ret (6 h)?
A: 13.6%

Q: And the WBC (6 h)?
A: 124.9 x10_2/uL

Q: And the KIDNEY_L (6 h)?
A: 1 g

Q: And the KIDNEY_R (6 h)?
A: 1 g

Q: And the KIDNEY_TOTAL (6 h)?
A: 1.9 g

Q: What about the LIVER (6 h) of the same compound?
A: 9.6 g

Q: And the A/G (6 h)?
A: 2.3

Q: What about the ALP (6 h) of the same compound?
A: 839.4 IU/L

Q: What about the ALT (6 h) of the same compound?
A: 31 IU/L

Q: What about the AST (6 h) of the same compound?
A: 59.4 IU/L

Q: And the BUN (6 h)?
A: 8.6 mg/dL

Q: And the CRE (6 h)?
A: 0.5 mg/dL

Q: What about the Ca (6 h) of the same compound?
A: 10.4 mg/dL

Q: And the Cl (6 h)?
A: 104.2 meq/L

Q: What about the DBIL (6 h) of the same compound?
A: 0.078 mg/dL

Q: What about the GLC (6 h) of the same compound?
A: 204.6 mg/dL

Q: And the IP (6 h)?
A: 9.7 mg/dL

Q: And the K (6 h)?
A: 5 meq/L

Q: What about the LDH (6 h) of the same compound?
A: 78 IU/L

Q: What about the Na (6 h) of the same compound?
A: 139 meq/L

Q: And the PL (6 h)?
A: 153.6 mg/dL

Q: And the RALB (6 h)?
A: 3.7 g/dL

Q: And the TBIL (6 h)?
A: 0.4 mg/dL

Q: And the TC (6 h)?
A: 82.6 mg/dL

Q: What about the TG (6 h) of the same compound?
A: 46 mg/dL

Q: What about the TP (6 h) of the same compound?
A: 5.4 g/dL

Q: What about the gamma-GTP (6 h) of the same compound?
A: 1.4 IU/L

Q: What about the TERMINAL_BW (9 h) of the same compound?
A: 200.3 g

Q: What about the APTT (9 h) of the same compound?
A: 17.6 s

Q: And the Bas (9 h)?
A: 0%

Q: What about the Eos (9 h) of the same compound?
A: 1%

Q: What about the Fbg (9 h) of the same compound?
A: 205.2 mg/dL

Q: What about the Hb (9 h) of the same compound?
A: 13.5 g/dL

Q: What about the Ht (9 h) of the same compound?
A: 40.5%

Q: And the Lym (9 h)?
A: 76.4%

Q: And the MCH (9 h)?
A: 21.8 pg

Q: And the MCHC (9 h)?
A: 33.4%

Q: What about the MCV (9 h) of the same compound?
A: 65.3 fL

Q: And the Mono (9 h)?
A: 7%

Q: What about the Neu (9 h) of the same compound?
A: 15.6%

Q: What about the PT (9 h) of the same compound?
A: 12 s

Q: And the Plat (9 h)?
A: 107.8 x10_4/uL

Q: What about the RBC (9 h) of the same compound?
A: 621.6 x10_4/ul

Q: What about the Ret (9 h) of the same compound?
A: 9.9%

Q: And the WBC (9 h)?
A: 72.9 x10_2/uL

Q: And the KIDNEY_L (9 h)?
A: 0.9 g

Q: What about the KIDNEY_R (9 h) of the same compound?
A: 1 g

Q: What about the KIDNEY_TOTAL (9 h) of the same compound?
A: 1.9 g

Q: What about the LIVER (9 h) of the same compound?
A: 8.2 g

Q: And the A/G (9 h)?
A: 2.7

Q: And the ALP (9 h)?
A: 857.6 IU/L

Q: What about the ALT (9 h) of the same compound?
A: 30.6 IU/L

Q: And the AST (9 h)?
A: 65.8 IU/L

Q: What about the BUN (9 h) of the same compound?
A: 12.8 mg/dL

Q: And the CRE (9 h)?
A: 0.4 mg/dL

Q: And the Ca (9 h)?
A: 10.8 mg/dL

Q: What about the Cl (9 h) of the same compound?
A: 105.6 meq/L

Q: What about the DBIL (9 h) of the same compound?
A: 0.04 mg/dL

Q: And the GLC (9 h)?
A: 190.8 mg/dL

Q: What about the IP (9 h) of the same compound?
A: 10 mg/dL

Q: What about the K (9 h) of the same compound?
A: 5 meq/L

Q: And the LDH (9 h)?
A: 96.4 IU/L

Q: What about the Na (9 h) of the same compound?
A: 137 meq/L

Q: What about the PL (9 h) of the same compound?
A: 154 mg/dL

Q: What about the RALB (9 h) of the same compound?
A: 4.1 g/dL

Q: And the TBIL (9 h)?
A: 0.4 mg/dL

Q: And the TC (9 h)?
A: 79.8 mg/dL

Q: What about the TG (9 h) of the same compound?
A: 49 mg/dL

Q: What about the TP (9 h) of the same compound?
A: 5.6 g/dL

Q: And the gamma-GTP (9 h)?
A: 1.4 IU/L

Q: What about the TERMINAL_BW (24 h) of the same compound?
A: 210.8 g

Q: What about the APTT (24 h) of the same compound?
A: 16.5 s

Q: What about the Bas (24 h) of the same compound?
A: 0%

Q: And the Eos (24 h)?
A: 2%

Q: What about the Fbg (24 h) of the same compound?
A: 202 mg/dL

Q: What about the Hb (24 h) of the same compound?
A: 13.8 g/dL

Q: And the Ht (24 h)?
A: 40.7%

Q: What about the Lym (24 h) of the same compound?
A: 70.4%

Q: And the MCH (24 h)?
A: 21.5 pg

Q: What about the MCHC (24 h) of the same compound?
A: 33.8%

Q: And the MCV (24 h)?
A: 63.5 fL

Q: And the Mono (24 h)?
A: 11.4%

Q: And the Neu (24 h)?
A: 16.4%

Q: What about the PT (24 h) of the same compound?
A: 11.8 s

Q: And the Plat (24 h)?
A: 115.4 x10_4/uL

Q: And the RBC (24 h)?
A: 640.6 x10_4/ul

Q: And the Ret (24 h)?
A: 10.2%

Q: And the WBC (24 h)?
A: 84.1 x10_2/uL

Q: And the KIDNEY_L (24 h)?
A: 0.9 g

Q: And the KIDNEY_R (24 h)?
A: 1 g

Q: And the KIDNEY_TOTAL (24 h)?
A: 1.9 g

Q: And the LIVER (24 h)?
A: 9.5 g

Q: And the A/G (24 h)?
A: 2.6

Q: What about the ALP (24 h) of the same compound?
A: 971 IU/L

Q: And the ALT (24 h)?
A: 41.8 IU/L

Q: And the AST (24 h)?
A: 68.2 IU/L

Q: What about the BUN (24 h) of the same compound?
A: 17.6 mg/dL

Q: And the CRE (24 h)?
A: 0.5 mg/dL

Q: What about the Ca (24 h) of the same compound?
A: 10.9 mg/dL

Q: What about the Cl (24 h) of the same compound?
A: 103.4 meq/L

Q: What about the DBIL (24 h) of the same compound?
A: 0.014 mg/dL

Q: What about the GLC (24 h) of the same compound?
A: 200.4 mg/dL

Q: What about the IP (24 h) of the same compound?
A: 8.5 mg/dL

Q: And the K (24 h)?
A: 4.9 meq/L

Q: What about the LDH (24 h) of the same compound?
A: 102.6 IU/L

Q: And the Na (24 h)?
A: 138 meq/L

Q: What about the PL (24 h) of the same compound?
A: 155 mg/dL

Q: What about the RALB (24 h) of the same compound?
A: 4 g/dL

Q: What about the TBIL (24 h) of the same compound?
A: 0.3 mg/dL

Q: And the TC (24 h)?
A: 80.8 mg/dL

Q: What about the TG (24 h) of the same compound?
A: 109.8 mg/dL

Q: What about the TP (24 h) of the same compound?
A: 5.5 g/dL

Q: What about the gamma-GTP (24 h) of the same compound?
A: 1.2 IU/L
